The values that follow come from patent US20140314791A1, “METHODS OF TREATING CANCER” (DANA-FARBER CANCER INSTITUTE, INC., priority 2012, published 2014).

In series [1] the test system is Lkb1-null t2, t4, and t5 cells. The series can be described thus: dTTP rescue of shDtymk growth phenotype. The format is cell-based, mouse. The note with it: without additional dTTP, 3 days. How it is done: (B) Morphology of Lkb1-null t2, t4, and t5 cells transduced with shGFP or shDtymk-1 and then cultured with or without additional 150 μM dTTP in medium for 3 days.
Next it was determined whether adding dTTP to the media could rescue cell death after Dtymk knockdown. Three Lkb1-null cell lines were transduced with shGFP or shDtymk-1 and then selectively cultured in puromycin medium in the presence or absence of 150 μM dTTP for 3 days (Taricani et al., 2010). […] Expression of DTYMK in the shDtymk-1 cells was not determined because the remaining cells were too few for RNA and protein extraction (FIG. 4B).

For the next series, the system named is Lkb1-wt cells. The series can be described thus: Array-based viral infection and cell proliferation assay (validation), Lkb1-wt. Set-up: species or system mouse. The note with it: 5 days post infection, alamarBlue. How it is done: (§1) (C) Validation study. Relative viability of Lkb1-wt and Lkb1-null cells infected with 340 individual hairpins for 5 days. Genes of interest are highlighted by the colors indicated.
(§2) For array-based viral infection and assessment of proliferation, 2.5 μl virus was mixed with 250 cells in 100 μl medium containing 8 μg/ml polybrene per well in 96-well plates. The plates were spun at 2250 rpm/37° C. for 30 min. Immediately after spinning, supernatants were gently aspirated off and 100 μl fresh medium was added to each well of the 96-well plates. After 2 days incubation, medium was gently aspirated off and 100 fresh medium containing 3 μg/ml puromycin was added to each well of the 96-well plates. The plates were back to culture for additional 3 days and then the viable cells were monitored by alamarBlue (Invitrogen) assay according to manufacturer's instructions.
(§3) To identify Lkb1-null-selective essential genes, a synthetic lethal screen was performed using a pooled 40K murine shRNA lentiviral library for each of the Lkb1-wt and Lkb1-null cell lines described above. Relative abundance of shRNAs in each cell line sample was determined by deep-sequencing analysis, and for every shRNA, a log 2 Fold Change (log 2FC) value was calculated from the difference in relative abundance at a late time point after infection versus the initial shRNA-infected sample. An unsupervised hierarchical clustering analysis of the ranked hairpins from the triplicate pooled shRNA library screens of Lkb1-wt and Lkb1-null mouse cancer cells is shown in FIG. 1A. […] The ranked hairpins were collapsed by using two methods, a RIGER analysis (KS t-test based statistics) and a weighted second best analysis to rank genes that selectively impaired proliferation/viability in Lkb1-null cells. A union of 344 genes, identified by the top 100 individual hairpins for 88 genes (Table 1) and the top 200 genes from both the KS (Table 2) and weighted second best (Table 3), was nominated as the initial prioritized list (FIG. 1B). 340 shRNAs, targeting 70 candidate genes from this prioritized list, were chosen for validation (Table 4). The 70 genes consisted of the top 10 candidates from the KS analysis, as well as 60 others involved in a range of biological processes in an attempt to represent all biological categories in the validation process. Validation was performed in an array format with an assay of relatively short duration (5 days post infection) compared to the primary pooled screen (28 days), which should be a more stringent selection, as it required the anti-proliferative effects to manifest in a short time period. […] Dtymk, Check1, and Pdhb are the top 3 candidate genes, each with 3 hairpins that scored in the validation assay (FIG. 1C).
In general terms: The colour change of resazurin is a common sign of viable cells or microbes.

In another series the test system is Lkb1-null cells. The series can be described thus: Array-based viral infection and cell proliferation assay (validation), Lkb1-null. Further details: species or system mouse. How it is done:
as §1, §2, §3

Consider “shDtymk-1: shRNA hairpin CAAGCTTCTGAATTCCTACTT targeting Mouse Dtymk”, for which the “growth of shDtymk-transduced Lkb1-null cells” value in series [1] is “grew poorly”. For the same substance, the “WT ave-GR” value in the series with Lkb1-wt cells stood at 0.53. In the series with Lkb1-null cells (Table 6), the “Growth of Lkb1-wt/Lkb1-null in array-based validation” value was found to be 4.16. Besides, the “Null ave-GR” value in the series with Lkb1-null cells (validation, 5 days post infection, alamarBlue) came out at 0.13.
